Source: patent publication US11311504B2 (priority 2012, dated 2022)

Tested on: rat
Settings: in vivo

Question: `CC(=O)Nc1ccc(O)cc1` [Paracetamol] was tested. Which “timepoint of peak effect” value did it give?
Answer: The value was 120 min p. appl.
